From ChEMBL document CHEMBL1152667, “Synthesis and radiopharmacological investigation of 3-[4'-[(18)F]fluorobenzylidene]indolin-2-one as possible tyrosine kinase inhibitor” (Bioorg Med Chem, 2009) come the findings set out here.

Structures are written as SMILES.

For assay [1], the target named is Vascular endothelial growth factor receptor 2 (Homo sapiens, UniProt P35968). The assay is described as follows: Inhibition of FLK1.
Assay [2] is described as follows: cells. Conditions: Endothelial cell.

Sequence of Vascular endothelial growth factor receptor 2 (P35968 whole entry): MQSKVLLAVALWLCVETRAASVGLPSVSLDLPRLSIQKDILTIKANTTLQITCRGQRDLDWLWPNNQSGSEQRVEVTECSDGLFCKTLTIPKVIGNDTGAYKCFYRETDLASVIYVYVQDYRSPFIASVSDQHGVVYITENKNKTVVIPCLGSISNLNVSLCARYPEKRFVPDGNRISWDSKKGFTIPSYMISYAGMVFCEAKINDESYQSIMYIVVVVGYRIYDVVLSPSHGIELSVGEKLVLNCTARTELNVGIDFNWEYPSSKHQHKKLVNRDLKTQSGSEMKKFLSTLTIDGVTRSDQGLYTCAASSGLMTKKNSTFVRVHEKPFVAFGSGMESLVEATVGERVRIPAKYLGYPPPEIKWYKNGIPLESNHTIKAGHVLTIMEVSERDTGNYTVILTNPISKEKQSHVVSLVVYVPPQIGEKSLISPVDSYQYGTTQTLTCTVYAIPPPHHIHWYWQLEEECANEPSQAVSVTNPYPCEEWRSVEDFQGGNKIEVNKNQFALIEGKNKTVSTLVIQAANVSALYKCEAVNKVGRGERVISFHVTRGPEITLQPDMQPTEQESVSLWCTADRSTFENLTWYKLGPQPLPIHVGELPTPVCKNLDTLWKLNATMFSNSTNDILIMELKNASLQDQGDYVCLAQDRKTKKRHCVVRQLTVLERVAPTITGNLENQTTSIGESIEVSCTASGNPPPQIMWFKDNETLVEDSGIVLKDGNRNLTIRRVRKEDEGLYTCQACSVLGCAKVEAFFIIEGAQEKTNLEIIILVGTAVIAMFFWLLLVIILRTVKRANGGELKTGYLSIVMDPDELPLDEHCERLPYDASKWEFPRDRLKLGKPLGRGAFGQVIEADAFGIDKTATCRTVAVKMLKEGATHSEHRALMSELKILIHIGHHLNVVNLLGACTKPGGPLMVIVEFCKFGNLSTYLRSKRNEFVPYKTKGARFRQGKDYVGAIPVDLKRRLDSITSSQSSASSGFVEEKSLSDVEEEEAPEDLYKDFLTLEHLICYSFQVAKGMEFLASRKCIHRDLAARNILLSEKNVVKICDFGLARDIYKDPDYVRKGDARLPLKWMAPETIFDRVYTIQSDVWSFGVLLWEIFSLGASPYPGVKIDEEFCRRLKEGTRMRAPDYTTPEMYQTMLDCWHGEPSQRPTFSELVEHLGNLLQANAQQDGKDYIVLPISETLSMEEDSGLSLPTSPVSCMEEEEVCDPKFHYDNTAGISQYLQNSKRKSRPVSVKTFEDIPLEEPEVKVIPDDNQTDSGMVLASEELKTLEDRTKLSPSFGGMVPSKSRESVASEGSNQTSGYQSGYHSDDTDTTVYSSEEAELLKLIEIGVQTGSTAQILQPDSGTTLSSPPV

As for `O=C1Nc2ccccc2/C1=C/c1ccc(F)cc1`, the IC50 came out at 9.6 µM in assay [1] and 5.1 µM in assay [2].
The compound `Cc1cc(C)c(/C=C2\C(=O)Nc3ccccc32)[nH]1` [SEMAXANIB] gave an IC50 in assay [2] of under 0.8 µM.

As a reminder, the IC50 is the concentration needed to halve the response being measured. Read a high IC50 as a need for much substance.
